Source: PMC7582571, “The First Berberine-Based Inhibitors of Tyrosyl-DNA Phosphodiesterase 1 (Tdp1), an Important DNA Repair Enzyme” (International Journal of Molecular Sciences, 2020)
Where “and” joins values, the source holds several entries; their conditions need not be identical. Equal entries are not always repeated. Entries after “also recorded” stand apart in the source; their conditions may differ. Where two headings read alike, the source gives them in different places.

Tests used:
Tdp1 = Tdp1 (Homo sapiens, UniProt Q9NUW8); assay: Tdp1 activity, real-time fluorescence oligonucleotide biosensor (FAM/BHQ1) assay; assay type: biochemical
Excerpt: An oligonucleotide real-time biosensor was used based on the ability of Tdp1 to remove fluorophore quenchers from the 3′-end of DNA, as previously described. The hexadecameric oligonucleotide carried 5(6)-carboxyfluorescein (FAM) at the 5′-end and the fluorophore quencher BHQ1 (Black Hole Quencher-1) at the 3′-end. Tdp1 inhibitors prevent removal of fluorophore quenchers, thus reducing fluorescence intensity.
The methodology has been reported in our previous work and consists of fluorescence intensity measurement in a reaction of quencher removal from a fluorophore quencher-coupled DNA oligonucleotide catalyzed by Tdp1. The reaction was carried out at different concentrations of inhibitors (the control samples contained 1% of DMSO, Sigma, St. Louis, MO, USA). The reaction mixtures contained Tdp1 buffer (50 mM Tris-HCl pH 8.0, 50 mM NaCl, and 7 mM β-mercaptoethanol), 50 nM biosensor, and an inhibitor being tested. Purified Tdp1 (1.5 nM) triggered the reaction. The biosensor (5′-[FAM] AAC GTC AGGGTC TTC C [BHQ]-3′) was synthesized in the Laboratory of Biomedical Chemistry at the Institute of Chemical Biology and Fundamental Medicine (Novosibirsk, Russia).
The reactions were incubated on a POLARstar OPTIMA fluorimeter (BMG LABTECH, GmbH, Ortenberg, Germany) to measure fluorescence every 55 s (ex. 485/em. 520 nm) during the linear phase (here, data from minute 0 to minute 8). The values of IC50 were determined using a six-point concentration response curve in minimum three independent experiments and were calculated using MARS Data Analysis 2.0 (BMG LABTECH, GmbH, Ortenberg, Germany).

[1] = Intrinsic cytotoxicity, EZ4U cell proliferation and cytotoxicity assay; assay type: cell-based, human; conditions: human, HeLa cells, compound alone, 3 days, read-out: CC50 (half maximal cytotoxic concentration)
Excerpt: (§1) Top1 poisons are used as anticancer drugs for the treatment for various oncological diseases. Since Tdp1 is involved in the removal of DNA damage caused by Top1 poisons, the activity of Tdp1 can lead to the development of drug resistance. Thus, it is believed that Tdp1 inhibition can enhance the efficacy of Top1 poisons. Tdp1 inhibitors should have the lowest possible intrinsic toxicity to minimize potential side effects. Therefore, we studied the intrinsic cytotoxicity of the compounds against HeLa cells (cervical carcinoma). EZ4U cell proliferation and cytotoxicity assay results are shown in Figure 4 for the ligands with Tdp1 inhibitory activity.
(§2) The cell culture was monitored for 3 days.

HeLa cells [2] = assay: cells; conditions: for effect of topotecan on the cytotoxicity of the Tdp1 inhibitor (in words): Mann–Whitney U-test; for CC50: Homo sapiens, HeLa
Protocol: For comparison, the concentration of the inhibitors was increased to 20 μM.
Cytotoxicity of the compounds to HeLa (human cervical cancer) cell line was examined using the EZ4U Cell Proliferation and Cytotoxicity Assay (Biomedica, Vienna, Austria), according to the manufacturer’s protocols. The cells were grown in Iscove’s modified Dulbecco’s medium (IMDM) with 40 μg/mL gentamicin, 50 IU/mL penicillin, 50 μg/mL streptomycin (MP Biomedicals, Santa Ana, CA, USA), and 10% of fetal bovine serum (Biolot, St. Petersburg, Russia) in a 5% CO2 atmosphere. After formation of a 30–50%-monolayer, the tested compounds were added to the medium. The volume of the added reagents was 1/100 of the total volume of the culture medium, and the amount of DMSO (Sigma, St. Louis, MO, USA) was 1% of the final volume. Control cells were grown in the presence of 1% DMSO. The cell culture was monitored for 3 days. To assess the influence of the inhibitors on the cytotoxic effect of topotecan (ACTAVIS GROUP PTC ehf., Bucharest, Romania), 50% cytotoxic concentrations of topotecan and of each inhibitor were determined to attain a defined single-agent effect. Then, minimum two independent tests were performed with each inhibitor in combination with topotecan. When using a combination of drugs, Tdp1 inhibitors were first added, then topotecan was added immediately (within 10–15 min).

HeLa cells [3] = assay: Intrinsic cytotoxicity, EZ4U cell proliferation and cytotoxicity assay; assay type: cell-based, human; conditions: for CC50: compound alone, 3 days, read-out: CC50 (half maximal cytotoxic concentration); for Intrinsic toxicity to HeLa cells (in words): without topotecan
Excerpt: as §1, §2

[4] = Tdp1, values of supplementary Table S1 (less rounded), read-out: IC50 (µM), Table S1
[5] = purified Tdp1 1.5 nM, 50 nM biosensor, read-out: IC50 (Tdp1 inhibiting activity)

Chain of Tdp1 (Q9NUW8 whole entry): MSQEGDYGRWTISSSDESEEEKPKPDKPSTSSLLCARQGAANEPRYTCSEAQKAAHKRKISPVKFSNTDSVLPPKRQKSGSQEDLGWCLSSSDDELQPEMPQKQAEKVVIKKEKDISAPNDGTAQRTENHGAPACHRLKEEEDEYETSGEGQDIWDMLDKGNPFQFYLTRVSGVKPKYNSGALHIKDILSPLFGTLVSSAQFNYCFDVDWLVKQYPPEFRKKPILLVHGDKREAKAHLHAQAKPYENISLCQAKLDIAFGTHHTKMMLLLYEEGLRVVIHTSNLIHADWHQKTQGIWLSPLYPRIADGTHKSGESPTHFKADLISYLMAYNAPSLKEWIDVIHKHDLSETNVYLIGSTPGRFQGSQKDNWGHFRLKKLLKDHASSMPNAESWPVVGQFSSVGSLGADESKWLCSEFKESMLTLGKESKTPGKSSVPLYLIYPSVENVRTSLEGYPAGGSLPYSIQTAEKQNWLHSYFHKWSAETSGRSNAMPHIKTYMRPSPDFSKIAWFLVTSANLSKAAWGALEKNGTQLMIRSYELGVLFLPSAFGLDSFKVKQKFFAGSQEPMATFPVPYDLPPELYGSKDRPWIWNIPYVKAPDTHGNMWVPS

Compound | IC50 (Tdp1; [4]) [µM] | IC50 (Tdp1; [5]) | CC50 at 3 days [1] [µM] | effect of topotecan on the cytotoxicity of the Tdp1 inhibitor (in words) (HeLa cells [2]; HeLa cells, 2 μM topotecan) | also measured
COc1cc(Br)c2c(c1OS(=O)(=O)c1c(F)c(F)c(C(F)(F)F)c(F)c1F)CN1CCc3cc4c(cc3C1C2)OCO4 (stereo not shown) [12h] | 1.38 ± 0.3 | 1.4 ± 0.3 µM | 2.2 ± 1.5 | negligible or unreliable | 
COc1ccc2cc3[n+](cc2c1OS(C)(=O)=O)CCc1cc2c(cc1-3)OCO2 [10a, 10-Methoxy-9-methanesulfonyloxy-2,3-methylenedioxyprotoberberine chloride] |  | > 15 µM |  |  | 
CCCS(=O)(=O)Oc1c(OC)ccc2c1CN1CCc3cc4c(cc3C1C2)OCO4 (stereo not shown) [11c] |  | > 15 µM |  |  | 
COc1cc(Br)c2c(c1OS(=O)(=O)c1ccc(C)cc1)CN1CCc3cc4c(cc3C1C2)OCO4 (stereo not shown) [12e] |  | > 15 µM |  |  | Tdp1 inhibitory activity (in words) (Tdp1): inactive
CCS(=O)(=O)Oc1c(OC)ccc2c1CN1CCc3cc4c(cc3C1C2)OCO4 (stereo not shown) [11b] |  | > 15 µM |  |  | 
COc1cc(Br)c2c(c1OS(=O)(=O)c1c(F)c(F)c(F)c(F)c1F)CN1CCc3cc4c(cc3C1C2)OCO4 (stereo not shown) [12f] |  | 0.53 ± 0.01 µM | 10 | negligible or unreliable | CC50 (HeLa cells [3]): 9.9 ± 4.5 µM
COc1ccc2c(c1OS(=O)(=O)c1ccc(C)cc1)CN1CCc3cc4c(cc3C1C2)OCO4 (stereo not shown) [11e] |  | > 15 µM |  |  | Tdp1 inhibitory activity (in words) (Tdp1): inactive
COc1ccc2c(c1OS(=O)(=O)c1c(F)c(F)c(F)c(F)c1F)CN1CCc3cc4c(cc3C1C2)OCO4 (stereo not shown) [11f] | 0.98 ± 0.2 | ~1 µM and 1 µM | 10 | significantly increased | cell death (HeLa cells [3]; 5 μM): 20%; cells that die (HeLa cells [3]; 20 μM): 90%; CC50 (HeLa cells [3]): 11 ± 2 µM; decrease of CC50 in the presence of topotecan (fold) (HeLa cells [2]; HeLa cells, 2 μM topotecan): three fold
COc1cc(Br)c2c(c1OS(C)(=O)=O)CN1CCc3cc4c(cc3C1C2)OCO4 (stereo not shown) [12a] |  | > 15 µM |  |  | 
CCS(=O)(=O)Oc1c(OC)cc(Br)c2c1CN1CCc3cc4c(cc3C1C2)OCO4 (stereo not shown) [12b] |  | > 15 µM |  |  | 
CCCS(=O)(=O)Oc1c(OC)cc(Br)c2c1CN1CCc3cc4c(cc3C1C2)OCO4 (stereo not shown) [12c] | 2.86 ± 1.25 | 2.9 ± 1.3 µM | > 100 | negligible or unreliable | Intrinsic toxicity to HeLa cells (in words) (HeLa cells [3]): non-toxic up to 100 μM
COc1cc(Br)c2c(c1OS(=O)(=O)c1c(F)c(F)cc(F)c1F)CN1CCc3cc4c(cc3C1C2)OCO4 (stereo not shown) [12g] | 1.33 ± 0.28 | 1.3 ± 0.3 µM | 95 ± 5 | significantly increased | sensitizing effect on the cytotoxicity of topotecan (in words) (HeLa cells [2]; HeLa cells): doubled; also recorded: significant effect; also recorded: pronounced sensitizing effect; also recorded: sensitized the cancer cells to topotecan
CCCCS(=O)(=O)Oc1c(OC)ccc2cc3[n+](cc12)CCc1cc2c(cc1-3)OCO2 [10d, 9-(Butane-1-sulfonyl)oxy-10-methoxy-2,3-methylenedioxy protoberberine chloride] |  | > 15 µM |  |  | 
CCCS(=O)(=O)Oc1c(OC)ccc2cc3[n+](cc12)CCc1cc2c(cc1-3)OCO2 [10c, 10-Methoxy-2,3-methylenedioxy-9-((propane-1-sulfonyl)oxy)protoberberine chloride] |  | > 15 µM |  |  | 
COc1ccc2c(c1OS(=O)(=O)c1c(F)c(F)c(C(F)(F)F)c(F)c1F)CN1CCc3cc4c(cc3C1C2)OCO4 (stereo not shown) [11h] | 0.93 ± 0.22 | 0.9 ± 0.2 µM | 2.6 ± 0.1 | negligible or unreliable | 
CC[C@@]1(O)C(=O)OCc2c1cc1n(c2=O)Cc2cc3c(CN(C)C)c(O)ccc3nc2-1 [topotecan, reference compound] |  |  | 2 |  | CC50 (HeLa cells [2]; read-out: CC50, μM–5 μM Tdp1 inhibitor (cytotoxic potential of topotecan)): 6.8 ± 1.1 µM; CC50 (HeLa cells [2]; read-out: CC50, μM–20 μM Tdp1 inhibitor (cytotoxic potential of topotecan)): 6.8 ± 1.1 µM
COc1ccc2cc3[n+](cc2c1OC)CCc1cc2c(cc1-3)OCO2 [compound 9, berberine] | > 15 |  |  |  | 
COc1ccc2c(c1OS(=O)(=O)c1c(F)c(F)cc(F)c1F)CN1CCc3cc4c(cc3C1C2)OCO4 (stereo not shown) [11g] | 1.05 ± 0.05 | 1.05 ± 0.05 µM | > 100 | significantly increased | living cells (HeLa cells [3]; 100 μM maximum concentration): 100%; Intrinsic toxicity to HeLa cells (in words) (HeLa cells [3]): low toxicity; also recorded: nontoxic; sensitizing effect on the cytotoxicity of topotecan (in words) (HeLa cells [2]; HeLa cells): doubled; also recorded: significant effect; also recorded: pronounced sensitizing effect; also recorded: sensitized the cancer cells to topotecan; decrease in cell survival in the presence of topotecan (HeLa cells [2]; HeLa cells, 2 μM topotecan, at all inhibitor concentrations): ~ 30%
CCS(=O)(=O)Oc1c(OC)ccc2cc3[n+](cc12)CCc1cc2c(cc1-3)OCO2 [10b, 9-Ethanesulfonyloxy-10-methoxy-2,3-methylenedioxyprotoberberine chloride] |  | > 15 µM |  |  | 
CCCCS(=O)(=O)Oc1c(OC)cc(Br)c2c1CN1CCc3cc4c(cc3C1C2)OCO4 (stereo not shown) [12d] | 4.06 ± 1.05 | 4 ± 1 µM | > 100 | negligible or unreliable | Intrinsic toxicity to HeLa cells (in words) (HeLa cells [3]): non-toxic up to 100 μM
CCCCS(=O)(=O)Oc1c(OC)ccc2c1CN1CCc3cc4c(cc3C1C2)OCO4 (stereo not shown) [11d] |  | > 15 µM |  |  | 
COc1ccc2c(c1OS(C)(=O)=O)CN1CCc3cc4c(cc3C1C2)OCO4 (stereo not shown) [11a] |  | > 15 µM |  |  | 
